Among the data in PMC10254923 (2023) are ΔTm and logKs values, retold here.

In test [1] the test system is poly dAdT—poly dAdT; p(dAdT)2 (DNA, polymer) AT. The experiment in a line: UV thermal denaturation at 260 nm. The conditions noted are these: Na+ (sodium cacodylate, I = 0.05 M); pH 7.0; r = [compound]/[polynucleotide] = 0.1; error ±0.5 °C; per base.
Test [2] shares this test system. The test is described as follows: UV/vis titration, Scatchard (McGhee-von Hippel) fit. The conditions noted are these: Na+ (sodium cacodylate, I = 0.05 M); pH 7.0, 25 °C; n fixed 0.2; polynucleotide concentration as phosphates; per base.
Test [3] concerns poly dGdC—poly dGdC; p(dGdC)2 (DNA, polymer) GC. The test is described as above. The conditions noted are these: Na+ (sodium cacodylate, I = 0.05 M); pH 7.0, 25 °C; n fixed 0.2; polynucleotide concentration as phosphates; per base.
Test [4] deals with poly rA—poly rU; prAprU (RNA, polymer) A/U. The test is described as follows: UV thermal denaturation at 260 nm. The conditions noted are these: Na+ (sodium cacodylate, I = 0.05 M); pH 7.0; r = [compound]/[polynucleotide] = 0.1; error ±0.5 °C; per base.
Test [5] has the same test system. The test is described as follows: UV/vis titration, Scatchard (McGhee-von Hippel) fit. The conditions noted are these: Na+ (sodium cacodylate, I = 0.05 M); pH 7.0, 25 °C; n fixed 0.2; polynucleotide concentration as phosphates; per base.
The test system of test [6] is poly dAdT—poly dAdT; p(dAdT)2 (DNA, polymer) AT. The experiment in a line: fluorimetric titration, Scatchard (McGhee-von Hippel) fit. The conditions noted are these: Na+ (sodium cacodylate, I = 0.05 M); pH 7.0, 25 °C; n fixed 0.2; polynucleotide concentration as phosphates; per base.
Test [7] concerns poly dGdC—poly dGdC; p(dGdC)2 (DNA, polymer) GC. The description is as above. The following applies: Na+ (sodium cacodylate, I = 0.05 M); pH 7.0, 25 °C; n fixed 0.2; polynucleotide concentration as phosphates; per base.
Test [8] relates to poly rA—poly rU; prAprU (RNA, polymer) A/U. Described as above. The following applies: Na+ (sodium cacodylate, I = 0.05 M); pH 7.0, 25 °C; n fixed 0.2; polynucleotide concentration as phosphates; per base.

`Cc1cc(-c2ccc(-c3ccc(-c4cc(C)c(B(c5c(C)cc([N+](C)(C)C)cc5C)c5c(C)cc([N+](C)(C)C)cc5C)c(C)c4)cc3)cc2)cc(C)c1B(c1c(C)cc([N+](C)(C)C)cc1C)c1c(C)cc([N+](C)(C)C)cc1C`: the thermal shift (ΔTm) in test [1] turned out to be 6.7 °C; in test [4], 12.1 °C. Further, the results for the logKs in test [2], in test [3] and in test [5] were 6.1, 6.0 and 7.5, respectively.

Take `Cc1cc(-c2ccc3c(c2)Cc2cc(-c4cc(C)c(B(c5c(C)cc([N+](C)(C)C)cc5C)c5c(C)cc([N+](C)(C)C)cc5C)c(C)c4)ccc2-3)cc(C)c1B(c1c(C)cc([N+](C)(C)C)cc1C)c1c(C)cc([N+](C)(C)C)cc1C`: the ΔTm in test [1] was determined as 8.2 °C; in test [4] it was 9.3 °C. The logKs in test [6] is 6.9; in test [7], 7.4; in test [8] it was 7.9.

Turning to `Cc1cc(-c2cc3ccc4cc(-c5cc(C)c(B(c6c(C)cc([N+](C)(C)C)cc6C)c6c(C)cc([N+](C)(C)C)cc6C)c(C)c5)cc5ccc(c2)c3c45)cc(C)c1B(c1c(C)cc([N+](C)(C)C)cc1C)c1c(C)cc([N+](C)(C)C)cc1C`, the ΔTm was determined as 9.6 °C in test [1] and 7.4 °C in test [4]. In addition, the logKs in test [6] was found to be 8.7; in test [7] it was 8.0; in test [8], 7.4.
